From PubChem BioAssay AID588630 (NMMLSC, 2011)
Several values for one entry are separate records, joined by “and”; a condition that tells them apart may be missing. Equal entries are not always repeated. Activity calls are given as the source filed them.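 Rule for the calls: active = fitted potency at or below 10 µM with a response change of at least 30% across doses and an acceptable curve fit; inactive = the rest.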

What follows are compounds tested against GTPase HRas (Homo sapiens) (UniProt P01112) (assay: blockers of fluorescent GTP loading onto wildtype HRas – biochemical, GST-H-Ras beads, Bodipy-FL-GTP, flow cytometry, multiplex, round 2, SAR follow-up (AID 588630)). Details: Bodipy-FL-GTP binding.
GTPase HRas (Homo sapiens), sequence (P01112 whole entry, looked up): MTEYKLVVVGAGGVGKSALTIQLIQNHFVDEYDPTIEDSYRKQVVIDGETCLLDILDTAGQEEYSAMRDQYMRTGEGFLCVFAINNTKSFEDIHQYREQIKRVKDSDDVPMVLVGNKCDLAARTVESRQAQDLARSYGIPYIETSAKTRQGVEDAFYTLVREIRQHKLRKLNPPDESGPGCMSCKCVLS
For CC1(C)Cc2c(sc(NC(=S)NC(=O)c3ccccc3F)c2C(=O)O)CO1, the EC50 was 359 nM. Compound Cc1ccccc1C(=O)NC(=S)Nc1sc2c(c1C(=O)O)CC(C)(C)OC2 has an EC50 of 444 nM. For CC1(C)Cc2c(sc(NC(=S)NC(=O)c3ccccc3Br)c2C(=O)O)CO1, the EC50 was 1780 nM. CC1(C)Cc2c(sc(NC(=S)NC(=O)c3cccs3)c2C(=O)O)CO1 was tested, and the EC50 was 35 nM. Cc1ccc(C(=O)NC(=S)Nc2sc3c(c2C(=O)O)CC(C)(C)OC3)cc1 showed an EC50 of 193 nM. In the case of COc1cccc(C(=O)NC(=S)Nc2sc3c(c2C(=O)O)CC(C)(C)OC3)c1, the EC50 is reported as 275 nM. Work on CC1(C)Cc2c(sc(NC(=S)NC(=O)C3CCCCC3)c2C(=O)O)CO1 yielded an EC50 of 625 nM. In the case of COc1ccc(C(=O)NC(=S)Nc2sc3c(c2C(=O)O)CC(C)(C)OC3)cc1, the EC50 is reported as 250 nM. CC1(C)Cc2c(sc(NC(=S)NC(=O)c3ccccc3)c2C(=O)O)CO1 was tested, and the EC50 was 20 nM. CCC1(C)Cc2c(sc(NC(=S)NC(=O)c3ccccc3)c2C(=O)O)CO1 (centres undefined) was tested, and the EC50 was 37 nM. CC1(C)CCc2sc(NC(=S)NC(=O)c3ccccc3)c(C(=O)O)c2C1 showed an EC50 of 43 nM. With CC1(C)Cc2c(sc(NC(=S)NC(=O)c3ccco3)c2C(=O)O)CO1 the EC50 was 79 nM. Work on CC1Cc2c(sc(NC(=S)NC(=O)c3ccccc3)c2C(=O)O)CO1 (centres undefined) yielded an EC50 of 201 nM. Work on CC(C)(C)C1Cc2c(sc(NC(=S)NC(=O)c3ccccc3)c2C(=O)O)CO1 (centres undefined) yielded an EC50 of 140 nM. Cc1cccc(C(=O)NC(=S)Nc2sc3c(c2C(=O)O)CC(C)(C)OC3)c1 gave an EC50 of 1390 nM. In the case of CC1(C)Cc2c(sc(NC(=O)NC(=O)c3ccccc3)c2C(=O)O)CO1, the EC50 is reported as 725 nM. O=C(NC(=S)Nc1sc2c(c1C(=O)O)CC1(CCCC1)OC2)c1ccccc1 showed an EC50 of 31 nM. For COc1ccccc1C(=O)NC(=S)Nc1sc2c(c1C(=O)O)CC(C)(C)OC2, the EC50 was 1320 nM. Compound CC1(C)Cc2c(sc(NC(=S)NC(=O)c3cccc(F)c3)c2C(=O)O)CO1 has an EC50 of 436 nM. O=C(NC(=S)Nc1sc2c(c1C(=O)O)CCOC2)c1ccccc1 was tested, and the EC50 was 106 nM and 242 nM. CC1(C)Cc2c(sc(NC(=S)NC(=O)c3ccc(Br)cc3)c2C(=O)O)CO1 showed an EC50 of 597 nM. Work on CC1(C)Cc2c(sc(NC(=S)NC(=O)c3ccc(F)cc3)c2C(=O)O)CO1 yielded an EC50 of 98 nM.

Same assay, conditions: at 100 µM (top of the series)
For CC1(C)Cc2c(sc(NC(=S)NC(=O)c3cccc(Br)c3)c2C(=O)O)CO1, the “% response (remaining GTP binding)” value was “inactive”. In the case of CC1(C)Cc2c(sc(NC(=S)Nc3ccccc3)c2C(=O)O)CO1, the “% response (remaining GTP binding)” value is reported as “inactive”.
